The record followed here is patent US8748436B2, “Carboxylic acid derivatives having a 2,5,7-substituted oxazolopyrimidine ring” (Sanofi, priority 2010, dated 2014).

T1 sequence (P21453 whole entry): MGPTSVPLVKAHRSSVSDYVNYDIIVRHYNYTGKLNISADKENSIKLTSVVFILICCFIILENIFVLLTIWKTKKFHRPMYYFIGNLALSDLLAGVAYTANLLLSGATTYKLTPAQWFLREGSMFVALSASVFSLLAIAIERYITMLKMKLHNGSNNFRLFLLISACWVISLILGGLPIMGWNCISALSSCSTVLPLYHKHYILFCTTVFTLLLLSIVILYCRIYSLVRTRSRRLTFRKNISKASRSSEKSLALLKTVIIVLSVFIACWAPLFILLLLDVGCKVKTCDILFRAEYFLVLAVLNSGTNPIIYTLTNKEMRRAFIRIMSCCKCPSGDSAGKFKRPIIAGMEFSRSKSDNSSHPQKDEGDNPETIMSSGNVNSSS

The experiment has as its target T1, human Edg-1 receptor (Homo sapiens, UniProt P21453).
T1 construct: FLAG (N); expressed in transfected cells; membrane preparation
Put plainly: GTP-γ-S assay using human Edg-1 receptors (scintillation proximity assay, CHO Flp-In cell membrane preparation). Type of experiment: biochemical. The note with it: test compound at 10 μM; high control 10 μM S1P regarded as 100% activation; [35S]GTP-γ-S binding, triplicate; read-out: % Activation (Edg-1 receptor activation in percent of the activation by 10 μM S1P). An excerpt:
A) GTP-γ-S Assay Using Human Edg-1 Receptors
In order to determine the Edg-1 receptor activation by the compounds of the invention, a GTP-γ-S (guanosine 5′-[thio]triphosphate) assay for G-protein coupled receptor binding based on the scintillation proximity assay principle was used, employing a cell membrane preparation from a CHO Flp-In cell line which constitutively overexpresses the human Edg-1 receptor.
The Flp-In™ expression system (Invitrogen, cat. no. K6010-01) allows the generation of stable mammalian cell lines into which the gene of interest has been integrated through homologous recombination at a specific genomic location called Flp Recombination Target (FRT) site by means of a Flp recombinase encoded by the pOG44 expression plasmid. The integration of the pcDNA5/FRT expression construct into the Flp-In host cell line genome results in the transcription of the gene of interest. The stably transfected cells become hygromycin-resistant.
One day prior to transfection, 200 000 Flp-In-CHO cells were seeded in Ham F-12 medium (Invitrogen, cat. no. 31765) supplemented with 10% fetal calf serum (FCS; Perbio Science, cat. no. SH30068.03) in a 6-well plate and incubated at 37° C./5% CO2 overnight. Using the FuGENE® 6 transfection reagent (Roche, cat. no. 11988387001), cells were cotransfected with the Flp recombinase expression plasmid pOG44 and a modified plasmid additionally containing the edg-1 gene (accession no. NM_001400) termed as pcDNA5-FRT-TO_nFLAG_DEST-EDG-1 with a 9:1 ratio. To obtain the modified pcDNA5-FRT-TO_nFLAG_DEST plasmid, the Invitrogen plasmid pcDNA5/FRT/TO (Invitrogen, cat. no. V6520-20) was adapted to the Gateway® (Invitrogen) cloning system by inserting a Gateway cassette containing attR recombination sites flanking a ccdB gene and a chloramphenicol-resistance gene (Gateway conversion system, Invitrogen, cat. no. 11828-029). In addition a FLAG tag epitope was added before the 5′ att recombination site to allow recombinant expression of N-terminally FLAG-tagged proteins.
For the transfection of one well, 1.08 μg of pOG44 and 0.12 μg of pcDNA5-FRT-TO_nFLAG_DEST-EDG-1 were mixed to 100 μl of serum-free Ham F-12 medium containing 6 μl of FuGENE® 6 transfection reagent. After 20 min of incubation, the transfection reagent/DNA complex was distributed dropwise on the cells. The cells were incubated for 24 h at 37° C. Then the cells from 3 wells were transferred to a T75 flask (Greiner Cellstar®, cat. no. 658175) containing Ham F-12 medium supplemented with 10% of FCS but without antibiotic and were incubated another 24 h. 48 h after transfection, the medium was replaced by selection medium (Ham F-12 supplemented with 10% of FCS and 300 μg/ml of hygromycin B (Invitrogen, cat. no. 10687-010)). The medium was exchanged every 2 to 3 days until a resistant population of cells had grown. […] After 2 weeks of selection, the cells were transferred into T175 flasks (Greiner Cellstar®, cat. no. 660175) and cultivated for batch production. Cells were harvested from the culture flasks by short treatment (2 to 5 min) with Accutase (PAA, cat. no. L11-007), resuspended in selection medium (see above) and centrifuged at 200×g for 5 min. The cells were resuspended in a mixture of 90% of FCS and 10% of dimethylsulfoxide and stored frozen in liquid nitrogen.
A membrane preparation was obtained by standard methods from the afore-described CHO Flp-In cell line constitutively overexpressing the human Edg-1 receptor. Briefly, the cryopreserved cells were taken in culture and grown until confluency in T175 cell culture flasks (Becton Dickinson, cat. no. 35 5001). […]
Background: Scintillation proximity formats need no separation of bound from free tracer.
Consider `CCCOc1nc(Oc2ccc(C)cc2F)nc2oc(-c3cc(C)c(OCC(=O)O)c(C)c3)nc12` [Example 44, {4-[5-(2-fluoro-4-methylphenoxy)-7-propoxy-oxazolo[5,4-d]pyrimidin-2-yl]-2,6-dimethylphenoxy}-acetic acid], for which the activation at 10 µM worked out at 43%.
The value for `CCCOc1nc(Oc2ccccc2C(F)(F)F)nc2oc(-c3cc(C)c(OCC(=O)O)c(C)c3)nc12` [Example 69, {2,6-dimethyl-4-[7-propoxy-5-(2-trifluoromethylphenoxy)-oxazolo[5,4-d]pyrimidin-2-yl]-phenoxy}-acetic acid] was 67%; that for `CCCOc1nc(Oc2ccc(C)c(Cl)c2)nc2oc(-c3cc(C)c(OCC(=O)O)c(C)c3)nc12` [Example 55, {4-[5-(3-chloro-4-methylphenoxy)-7-propoxy-oxazolo[5,4-d]pyrimidin-2-yl]-2,6-dimethylphenoxy}-acetic acid] was 66%; that for `CCCOc1nc(Oc2cc(F)cc(Cl)c2)nc2oc(-c3cc(C)c(OCC(=O)O)c(C)c3)nc12` [Example 60, {4-[5-(3-chloro-5-fluorophenoxy)-7-propoxy-oxazolo[5,4-d]pyrimidin-2-yl]-2,6-dimethyl-phenoxy}-acetic acid] was 59%.
For `CCCOc1nc(Oc2cc(F)cc(C(F)(F)F)c2)nc2oc(-c3cc(C)c(OCC(=O)O)c(C)c3)nc12` [Example 75, {4-[5-(3-fluoro-5-trifluoromethylphenoxy)-7-propoxy-oxazolo[5,4-d]pyrimidin-2-yl]-2,6-dimethyl-phenoxy}-acetic acid] the value was 48%; for `CCCOc1nc(Oc2cc(Cl)ccc2C)nc2oc(-c3cc(C)c(OCC(=O)O)c(C)c3)nc12` [Example 56, {4-[5-(5-chloro-2-methylphenoxy)-7-propoxy-oxazolo[5,4-d]pyrimidin-2-yl]-2,6-dimethyl-phenoxy}-acetic acid], 78%; for `CCCOc1nc(Oc2ccc3c(c2)CCC3)nc2oc(-c3cc(C)c(OCC(=O)O)c(C)c3)nc12` [Example 53, {4-[5-(indan-5-yloxy)-7-propoxy-oxazolo[5,4-d]pyrimidin-2-yl]-2,6-dimethylphenoxy}-acetic acid], 55%.
The value for `CCCOc1nc(Oc2ccc(F)c(C)c2)nc2oc(-c3cc(C)c(OCC(=O)O)c(C)c3)nc12` [Example 43, {4-[5-(4-fluoro-3-methylphenoxy)-7-propoxy-oxazolo[5,4-d]pyrimidin-2-yl]-2,6-dimethyl-phenoxy}-acetic acid] was 60%.
For `CCCOc1nc(Oc2ccc3sc(C)nc3c2)nc2oc(-c3cc(C)c(OCC(=O)O)c(C)c3)nc12` [Example 70, {2,6-dimethyl-4-[5-(2-methylbenzothiazol-5-yloxy)-7-propoxy-oxazolo[5,4-d]pyrimidin-2-yl]-phenoxy}-acetic acid], the activation at 10 µM was 89%.
For `CCCOc1nc(OC2CCC2)nc2oc(-c3cc(C)c(OCC(=O)O)c(C)c3)nc12` [Example 14, [4-(5-cyclobutoxy-7-propoxy-oxazolo[5,4-d]pyrimidin-2-yl)-2,6-dimethyl-phenoxy]-acetic acid] the value was 88%; for `CCCOc1nc(O[C@@H]2CCCC[C@H]2F)nc2oc(-c3cc(C)c(OCC(=O)O)c(C)c3)nc12` (relative stereo) [Example 3, {4-[5-(trans-2-Fluoro-cyclohexyloxy)-7-propoxy-oxazolo[5,4-d]pyrimidin-2-yl]-2,6-dimethyl-phenoxy}-acetic acid], 65%; for `CCCOc1nc(OCC2CCCO2)nc2oc(-c3cc(C)c(OCC(=O)O)c(C)c3)nc12` (centres unmarked) [Example 19, {2,6-dimethyl-4-[7-propoxy-5-(tetrahydrofuran-2-ylmethoxy)-oxazolo[5,4-d]pyrimidin-2-yl]-phenoxy}-acetic acid], 84%.
On to `CCOc1nc(Oc2cc(F)ccc2F)nc2oc(-c3cc(C)c(OCC(=O)O)c(C)c3)nc12` [Example 39, {4-[5-(2,5-difluorophenoxy)-7-ethoxy-oxazolo[5,4-d]pyrimidin-2-yl]-2,6-dimethyl-phenoxy}-acetic acid], for which the activation at 10 µM was determined as 121%.
The value for `CCCOc1nc(Oc2ccc(Cl)cc2F)nc2oc(-c3cc(C)c(OCC(=O)O)c(C)c3)nc12` [Example 59, {4-[5-(4-chloro-2-fluorophenoxy)-7-propoxy-oxazolo[5,4-d]pyrimidin-2-yl]-2,6-dimethyl-phenoxy}-acetic acid] was 72%.
The value for `CCCOc1nc(Oc2cc(F)cc(F)c2)nc2oc(-c3cc(C)c(OCC(=O)O)c(C)c3)nc12` [Example 50, {4-[5-(3,5-difluorophenoxy)-7-propoxy-oxazolo[5,4-d]pyrimidin-2-yl]-2,6-dimethyl-phenoxy}-acetic acid] was 86%; that for `CCCOc1nc(Oc2cccc(C(F)(F)F)c2)nc2oc(-c3cc(C)c(OCC(=O)O)c(C)c3)nc12` [Example 67, {2,6-dimethyl-4-[7-propoxy-5-(3-trifluoromethylphenoxy)-oxazolo[5,4-d]pyrimidin-2-yl]-phenoxy}-acetic acid] was 82%.
The value for `CCCOc1nc(OCC)nc2oc(-c3cc(C)c(OCC(=O)O)c(C)c3)nc12` [Example 17, [4-(5-ethoxy-7-propoxy-oxazolo[5,4-d]pyrimidin-2-yl)-2,6-dimethyl-phenoxy]-acetic acid] was 70%; that for `CCCOc1nc(Oc2cccnc2)nc2oc(-c3cc(C)c(OCC(=O)O)c(C)c3)nc12` [Example 7, {2,6-dimethyl-4-[7-propoxy-5-(pyridin-3-yloxy)-oxazolo[5,4-d]pyrimidin-2-yl]-phenoxy}-acetic acid] was 87%.
Consider `CCCOc1nc(Oc2cccc(Cl)c2C)nc2oc(-c3cc(C)c(OCC(=O)O)c(C)c3)nc12` [Example 54, {4-[5-(3-chloro-2-methylphenoxy)-7-propoxy-oxazolo[5,4-d]pyrimidin-2-yl]-2,6-dimethyl-phenoxy}-acetic acid], for which the activation at 10 µM came to 107%.
The value for `CCCOc1nc(Oc2cc(C(F)(F)F)ccc2Cl)nc2oc(-c3cc(C)c(OCC(=O)O)c(C)c3)nc12` [Example 77, {4-[5-(2-chloro-5-trifluoromethylphenoxy)-7-propoxy-oxazolo[5,4-d]pyrimidin-2-yl]-2,6-dimethyl-phenoxy}-acetic acid] was 77%; that for `CCCOc1nc(Oc2ccccc2OC(F)(F)F)nc2oc(-c3cc(C)c(OCC(=O)O)c(C)c3)nc12` [Example 71, {2,6-dimethyl-4-[7-propoxy-5-(2-trifluoromethoxyphenoxy)-oxazolo[5,4-d]pyrimidin-2-yl]-phenoxy}-acetic acid] was 62%.
For `CCCOc1nc(Oc2ccc(F)cc2F)nc2oc(-c3cc(C)c(OCC(=O)O)c(C)c3)nc12` [Example 8, {4-[5-(2,4-difluoro-phenoxy)-7-propoxy-oxazolo[5,4-d]pyrimidin-2-yl]-2,6-dimethyl-phenoxy}-acetic acid] the value was 84%; for `CCCOc1nc(Oc2cccc(C(F)(F)F)c2Cl)nc2oc(-c3cc(C)c(OCC(=O)O)c(C)c3)nc12` [Example 79, {4-[5-(2-chloro-3-trifluoromethylphenoxy)-7-propoxy-oxazolo[5,4-d]pyrimidin-2-yl]-2,6-dimethylphenoxy}-acetic acid], 82%.
